1 molecule from PMC5786306, “An AKAP-Lbc-RhoA interaction inhibitor promotes the translocation of aquaporin-2 to the plasma membrane of renal collecting duct principal cells” (PLoS ONE, 2018) can be followed below.

The test system of data set [1] is Rac1 activity in IMCD cells. As to the kind of experiment: PAK-1-PBD pull down, Rac1. The data set is classed as cell-based, rat. As to conditions: 30 μM, 1 h. The protocol: The (p21) binding domain (PBD) of p21 activated kinase 1 protein (PAK-1) spans amino acids 67–150 of PAK-1 and binds specifically to the GTP-bound Rac-1 and Cdc42. The PBD was prepared as described and used for selective precipitation of the activated GTPases from IMCD cells. The PBD was expressed as a GST-fusion protein in DH5α E-coli cells, the cells were lysed using a French press, and the fusion protein was purified with Glutathione Sepharose 4 Fast Flow GST-tagged protein purification resin kit according to the manufacturer’s instructions (GE Healthcare; #17-5132-01). The PAK-1-PBD pull down was carried out with 400–500 μg protein from IMCD cell lysates. Proteins were eluted from the beads by boiling with Laemmli sample buffer, and analyzed by Western blotting. The membranes were first probed for Cdc42, and the GTP-bound active fraction of the protein was related to total Cdc42, and to the loading control GAPDH. The membranes were re-probed for Rac-1 accordingly to determine the active GTP-bound Rac-1 fraction.
Fig 10 Scaff10-8 inhibits activation of RhoA in primary IMCD cells. IMCD cells were incubated with Scaff10-8 (30 μM, 1 h). DMSO (1%), the solvent of Scaff10-8, served as a control. […] Signals were semiquantitatively analyzed by densitometry. […] Statistically significant differences were determined using one-way ANOVA with posthoc Bonferroni. […]

In data set [2] the target is His6-GST fusion protein (Schistosoma japonicum, UniProt P08515). As to the kind of experiment: HTRF control assay with His6-GST fusion protein. Conditions: control for interference with tags or antibodies. Type of data set: binding. The protocol: The assay was essentially carried out as described. Scaff10 derivatives were added to His6-AKAP-Lbc/DHPH protein (250 nM final concentration) in HTRF buffer (PBS; 4 mM MgCl2; 0.05% Tween 20) in 384 well plates (Proxiplate-384 Plus, white, #6008289; Perkin Elmer LAS, Rodgau, Germany). Concentrations of Scaff10 derivatives ranged between 1.56–200 μM (2% DMSO final concentration); HTRF buffer with 2% DMSO served as a control. GST-RhoA (30 nM final concentration) in HTRF buffer and anti-GST antibody coupled to terbium (donor) and anti-His6-tag antibody coupled to XL665 (acceptor) were added to all wells (final antibody concentration: 2 μg/ml). After 1 h incubation at room temperature in the dark, FRET signals were recorded at 620 and 665 nm using a Genios Pro plate reader (Tecan Austria GmbH, Grödig, AT) and the ratios of […] to 620 nm were calculated. Wells containing no compound were set to 100% interaction of AKAP-Lbc/DHPH with RhoA, wells containing GST-RhoA only (without His6-AKAP-Lbc/DHPH) were set to 0% interaction. To exclude any interference of the tags and/or antibodies with Scaff10 derivatives, a His6-GST fusion protein replaced the two tagged proteins in a control assay. Wells containing His6-GST fusion protein were set to 100% interaction of His6-GST, wells containing no fusion protein were set to 0% interaction.
A general note: Time-resolved FRET reads energy transfer from a long-lived donor to a nearby acceptor.

Data set [3] deals with IMCD, MCD4, HEK293, MCF7 and H9C2 cells. As to the kind of experiment: MTS cytotoxicity assay. Type of data set: cell-based, rat, mouse, human. As to conditions: 3–100 μM, 24–72 h. The protocol: The potential cytotoxicity of Scaff10-8 on primary IMCD and several permanent cell lines (MCF7, H9C2, HEK293, MCD4) was assessed using the tetrazolium compound-based CellTiter 96 AQueous One Solution Cell Proliferation (3-(4,5-dimethylthiazol-2-yl)-5-(3-carboxymethoxyphenyl)-2-(4-sulfophenyl)-2H-tetrazolium) (MTS) assay according to the instructions of the manufacturer. In brief, the cells were seeded into 96 well plates (5,000 cells per well) and cultured in their appropriate medium Scaff10-8 (100 μM, 30 μm and 3 μm, 0.3% final DMSO concentration) were added, DMSO (0.3%) was included as a control. Staurosporine (1 μM) was included as a positive control. All conditions were tested in quadruplicate. At the indicated time points, the MTS reagent was added. Absorption was determined 4 h after addition of MTS reagent at 450 nm wavelength. The MST reagent absorbance at 450 nm is proportional to the amount of living cells. A blank measurement determined the medium absorption (background). Values were normalized to untreated cells after 24 h for each cell line.
Fig 6 Scaff10-8 is not cytotoxic. […] (B) Cytotoxicity was assessed after 24–72 h of incubation with Scaff10-8 (3, 30, 100 μM). […] Absorption was determined at 450 nm and was related to medium absorption (blank). […] Statistically significant differences were determined applying one-way ANOVA with posthoc Bonferroni. […]
(In general: Formazan colour is commonly taken as a measure of viable cells.)

For data set [4], the system named is MCD4 cells. As to the kind of experiment: Uptake into cells by mass spectrometry. As to conditions: data not shown. The data set is classed as in vitro ADME, mouse.

His6-GST fusion protein, sequence (P08515 whole entry, the tested form may be a part): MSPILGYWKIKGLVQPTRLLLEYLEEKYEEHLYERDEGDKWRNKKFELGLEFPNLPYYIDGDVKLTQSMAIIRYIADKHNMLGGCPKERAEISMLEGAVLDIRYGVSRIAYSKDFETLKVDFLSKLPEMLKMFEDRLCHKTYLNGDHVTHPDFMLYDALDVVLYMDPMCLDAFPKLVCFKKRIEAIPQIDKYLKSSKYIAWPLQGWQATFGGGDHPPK

Turning to `COc1ccc(-c2coc3cc4oc(=O)c(CCC(=O)O)c(C)c4cc23)cc1` [Scaff10-8, 3-[3-(4-Methoxyphenyl)-5-methyl-7-oxo-furo[3,2-g]chromen-6-yl] propanoic acid], the “activity of Rac1” value in data set [1] is recorded as “did not influence activities”. Further, the “interaction with His-GST fusion protein” value in data set [2] is recorded as “does not interact”. For the same molecule, the “viability of cells (MTS)” value in data set [3] is on record as “did not influence the viability”. Besides, the uptake into cells entry in data set [4] was “confirmed the uptake”.
